Assays:
Format in all cases: functional, cell-based
NTERA-2-cl-D1 = assay: Proapoptotic activity in human NT2/D1 cells by annexin V-FITC/propidium iodide staining-based capillary cytometric method
BJ = assay: Proapoptotic activity in human BJ cells by annexin V-FITC/propidium iodide staining-based capillary cytometric method
ASPC1 = assay: Proapoptotic activity in human AsPC1 cells by annexin V-FITC/propidium iodide staining-based capillary cytometric method
BXPC-3 = assay: Proapoptotic activity in human BxPC3 cells by annexin V-FITC/propidium iodide staining-based capillary cytometric method

EC50 (NTERA-2-cl-D1) [µM] | EC50 (ASPC1) [µM] | EC50 (BXPC-3) [µM] | SMILES | EC50 (BJ) [µM]
16 | 19 | 25 | Nc1nc(-c2cccc(NC(=O)c3cc4cc(Cl)ccc4[nH]3)c2)c[nH]1 | 20
16 | 52 | 53 | COc1ccc2[nH]c(C(=O)Nc3cccc(-c4c[nH]c(N)n4)c3)cc2c1 | 31

Source: ChEMBL document CHEMBL3853262 (Medchemcomm, 2016)
